Test results from patent publication US20180002371A1 (BAYLOR COLLEGE OF MEDICINE, priority 2014, published 2018).

What was measured:
[1] = system: Female ICR mice; assay: Electrocardiogram (EKG) measurements in mice; type: in vivo, mouse
Procedure: Electrocardiogram (EKG) Measurements. […] Non-invasive EKG recordings were made using the ECGenie system (Mouse Specifics) at several subsequent time points. […] Data acquisition was performed using the program LabChart 6 (ADlnstruments). Individual EKG signals were then evaluated using e-MOUSE physiologic waveform analysis software (Mouse Specifics) as previously described.

[2] = system: MDA-MB-231-LM3-3 orthotopic breast tumors; assay: Therapeutic efficacy in an orthotopic TNBC mouse model; type: in vivo; conditions: 0.75 mg/kg three times per week
Procedure: Therapeutic Efficacy of 3-phospho-bufalin in an Orthotopic TNBC Mouse Model. To establish orthotopic breast tumors, 0.75×10^6 MDA-MB-231-LM3-3 cells were injected into one of the second mammary fat pads of nude mice (Charles River Laboratories, female, 6-7 weeks, n=6/group). When tumors became palpable, generally 14 days after injection, mice were randomized into two groups. The treatment group was then injected with phospho-bufalin subcutaneously (0.75 mg/kg per dose, 3 doses per week) for 3 weeks while the control group received PBS. Tumor lengths and widths were measured three times per week. Tumor sizes were calculated by: (length×width×width)/2.
The therapeutic efficacy of P-Buf was tested in an orthotopic TNBC model. LM3-3 cells (0.75×10^6 cells per mouse) were inoculated into the second pair of mammary gland fat pads of nude mice (female, […]). The mice were randomized into two groups based on luciferase imaging (n=6 per group). Fourteen days after tumor inoculation, the treatment group began receiving P-Buf (0.75 mg/kg) three times per week while the control group received PBS. Tumor volumes were measured three times per week. […] At day 31, the mice were euthanized and tumors were harvested. The tumors derived from PBS treated mice weighed ˜2.4 times more than those of the experimental treatment group (FIGS. 8B and C).

[3] = Pharmacokinetic studies of bufalin and 3-phospho-bufalin; conditions: p-buf 0.5 mg/kg i.p.
Procedure: Five quality control (QC) samples at 10 ng/mL, 20 ng/mL, 500 ng/mL, 4000 ng/mL and 8000 ng/mL of plasma were prepared independently of those used for the calibration curves. QC samples were prepared on the day of analysis in the same way as the calibration standards.
Standards, QC samples, and unknown samples were injected into a LC/MS/MS machine for quantitative analysis. […] For i.p. injected P-Buf, the PK trace was fittedto a non-compartmental extravascular model.
P-Buf was dissolved in PBS and administered intraperitoneally at the same dose.

[4] = system: mouse heart tissues; assay: H-E staining of mouse heart tissues; type: in vivo; conditions: 24 hours after drug administration
[5] = system: MDA-MB-231-LM3-3; assay: Cell cytotoxicity assay (MTT), MDA-MB-231-LM3-3; type: cell-based; conditions: MDA-MB-231-LM3-3, 72 h, read-out: IC50 cell viability
Procedure: (§1) Cell Culture. Triple negative breast cancer (TNBC) cell lines HCC1143, SUM149PT, SUM159PT, and MDA-MB-231 were obtained from ATCC. The MDA-MB-231-LM3-3 (LM3-3) cell line was developed from lung metastasis derived from a MDA-MB-231-LM2 xenograft tumor in the mammary fat pad of a SCID mouse.
(§2) The HCC1143 cell line was grown in RPMI-1640 medium, SUM149PT and SUM159PT cell lines were grown in F-12 medium, and MDA-MB-231 cells were grown in DMEM. All culture media were supplemented with 10% fetal bovine serum. All cell lines were grown in a humidified incubator containing 5% CO2 at 37° C. Primary hepatocytes were isolated from an adult male mouse (C57BL) by collagenase perfusion (0.8 mg/mL; Sigma-Aldrich, C5138) through the portal vein and maintained in M199 medium with 10% FBS. The viability of freshly isolated hepatocytes was verified using Trypan blue staining.
(§3) Cell Cytotoxicity Assays. TNBC cells (5000 to 7000 cells per well) were seeded in 96-well plates in medium supplemented with 10% FBS. […] Cell viabilities relative to untreated control cells were plotted using Graphpad Prism.

[6] = system: SUM159PT; assay: Cell cytotoxicity assay (MTT), SUM159PT; type: cell-based; conditions: 72 h, read-out: IC50 cell viability
Procedure: as §1, §2, §3

[7] = target: T1, SRC-3 (Homo sapiens, UniProt Q9Y6Q9); assay: Western blotting of SRC-3 protein in TNBC cells; type: cell-based
T1 construct: endogenous in cells; host or cells: HCC1143, SUM149PT, SUM159PT, MDA-MB-231, MDA-MB-231-LM3-3
Procedure: Western Blotting Assays. Cell lysate was prepared by adding RIPA buffer (containing 10 mM Tris-Cl pH 8.0, 1 mM EDTA, 0.5 mM EGTA, 1% Triton X-100, 0.1% sodium deoxycholate, 0.1% SDS, 140 mM NaCl, and protease inhibitors) to cells kept on ice. After spinning samples at 16,000 rpm for 15 minutes at 4 ° C., insoluble materials in the collected cell lysate were precipitated and discarded. The total protein concentration was measured using a Bradford protein assay. An equivalent mass of each sample was loaded and electrophoretically separated by 10% SDS-PAGE. Then, proteins on PAGE the gel were transferred to a PVDF membrane. Anti-SRC-3 (Cell Signaling Technology Co. Cat#2126) and anti-actin (Cell Signaling Technology Co. Cat#8457) were used to probe the membranes.

[8] = target: T1, SRC-3; conditions: receptor interacting domain; cited from earlier work
[9] = system: cancer cells; conditions: cited from earlier work
[10] = system: MDA-MB-231; assay: Cell cytotoxicity assay (MTT), MDA-MB-231; type: cell-based; conditions: MDA-MB-231, 72 h, read-out: IC50 cell viability
Procedure: as §1, §2, §3

[11] = system: LM3-3 cells; assay: Bufalin and gefitinib cotreatment, cell viability; type: cell-based
[12] = system: HCC1143; assay: Cell cytotoxicity assay (MTT), HCC1143; type: cell-based; conditions: HCC1143, 72 h, read-out: IC50 cell viability
Procedure: as §1, §2, §3

[13] = system: LM3-3 cells; assay: Single cell motility assay; type: cell-based
Procedure: Single Cell Motility Assays. Microtiter 96-well plates pre-coated with collagen V were covered with beads provided by a Cell Motility HCS kit (Thermo Scientific Co. Cat# K0800011). LM3-3 cells (500) were seeded in each bead-coated well. […] The cell track areas (pixels) were counted using Image J. To attain statistical significance, more than 50 cell tracks in each sample were counted.

[14] = system: SUM149PT; assay: Cell cytotoxicity assay (MTT), SUM149PT; type: cell-based; conditions: 72 h, read-out: IC50 cell viability
Procedure: as §1, §2, §3

[15] = 3-phospho-bufalin 7.5 mg/kg i.p., +10 min post-injection
[16] = 3-phospho-bufalin 7.5 mg/kg i.p., −5 min post-injection (baseline)
[17] = 3-phospho-bufalin 11.25 mg/kg i.p., +5 min post-injection
[18] = 3-phospho-bufalin 11.25 mg/kg i.p., +10 min post-injection
[19] = 3-phospho-bufalin 11.25 mg/kg i.p., +15 min post-injection
[20] = 3-phospho-bufalin 11.25 mg/kg i.p., −5 min post-injection (baseline)

T1 sequence (Q9Y6Q9 whole entry): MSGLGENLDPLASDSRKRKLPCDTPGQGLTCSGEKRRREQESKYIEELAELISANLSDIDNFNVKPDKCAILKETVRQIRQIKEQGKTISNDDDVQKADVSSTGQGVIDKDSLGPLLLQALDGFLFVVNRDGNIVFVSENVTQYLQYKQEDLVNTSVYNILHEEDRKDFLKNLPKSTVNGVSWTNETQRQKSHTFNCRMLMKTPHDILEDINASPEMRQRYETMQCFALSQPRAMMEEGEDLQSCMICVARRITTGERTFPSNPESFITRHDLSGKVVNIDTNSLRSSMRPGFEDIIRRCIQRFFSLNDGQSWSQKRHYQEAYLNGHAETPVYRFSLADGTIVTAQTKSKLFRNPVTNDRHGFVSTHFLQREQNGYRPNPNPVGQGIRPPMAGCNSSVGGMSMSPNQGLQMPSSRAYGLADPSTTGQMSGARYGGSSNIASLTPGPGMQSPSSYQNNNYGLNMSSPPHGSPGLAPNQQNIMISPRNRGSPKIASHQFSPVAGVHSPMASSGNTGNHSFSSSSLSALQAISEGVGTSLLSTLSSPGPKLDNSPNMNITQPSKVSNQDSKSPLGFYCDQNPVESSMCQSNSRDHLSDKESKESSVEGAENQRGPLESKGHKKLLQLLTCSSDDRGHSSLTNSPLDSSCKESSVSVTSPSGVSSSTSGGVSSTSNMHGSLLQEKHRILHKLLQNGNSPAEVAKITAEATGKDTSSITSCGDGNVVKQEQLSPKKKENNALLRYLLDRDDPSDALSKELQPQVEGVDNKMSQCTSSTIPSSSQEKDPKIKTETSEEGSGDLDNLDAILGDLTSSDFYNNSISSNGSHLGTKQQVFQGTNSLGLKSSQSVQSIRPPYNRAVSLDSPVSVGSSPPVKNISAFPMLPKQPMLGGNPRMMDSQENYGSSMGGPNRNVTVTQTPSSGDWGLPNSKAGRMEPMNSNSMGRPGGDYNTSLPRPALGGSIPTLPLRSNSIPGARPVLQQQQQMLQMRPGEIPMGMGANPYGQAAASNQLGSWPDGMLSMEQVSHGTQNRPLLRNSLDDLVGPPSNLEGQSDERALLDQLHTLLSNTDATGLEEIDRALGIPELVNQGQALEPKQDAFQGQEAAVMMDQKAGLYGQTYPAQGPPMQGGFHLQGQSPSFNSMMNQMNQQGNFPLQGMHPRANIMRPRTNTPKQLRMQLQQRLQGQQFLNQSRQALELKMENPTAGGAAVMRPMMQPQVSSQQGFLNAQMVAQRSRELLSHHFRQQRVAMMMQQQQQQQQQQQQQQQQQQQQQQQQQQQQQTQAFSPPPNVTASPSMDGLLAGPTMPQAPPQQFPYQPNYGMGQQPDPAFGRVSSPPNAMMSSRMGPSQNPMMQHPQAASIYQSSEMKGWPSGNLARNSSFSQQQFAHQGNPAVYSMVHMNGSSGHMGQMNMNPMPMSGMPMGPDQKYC

C[C@]12CC[C@H](OP(=O)(O)O)C[C@H]1CC[C@@H]1[C@@H]2CC[C@]2(C)[C@@H](c3ccc(=O)oc3)CC[C@]12O [3-Phospho-Bufalin, 3-Phospho-bufalin]
changes in EKG parameters ([1]; 7.5 mg/kg and 11.25 mg/kg i.p.): no significant changes in EKG parameters were observed
HR [1, 15]: 788.7 ± 1.2 BPM
QRS [1, 15]: 11.0 ± 0.1 ms
QT [1, 15]: 38.2 ± 0.9 ms
QTc [1, 15]: 43.8 ± 1.0 ms
RR [1, 15]: 76.1 ± 0.1 ms
ST [1, 15]: 27.6 ± 0.9 ms
HR [1, 16]: 754.7 ± 6.6 BPM
QRS [1, 16]: 10.6 ± 0.1 ms
QT [1, 16]: 40.2 ± 0.6 ms
QTc [1, 16]: 45.0 ± 0.5 ms
RR [1, 16]: 79.6 ± 0.7 ms
ST [1, 16]: 30.1 ± 0.7 ms
HR [1, 17]: 779.7 ± 1.5 BPM
QRS [1, 17]: 10.9 ± 0.1 ms
QT [1, 17]: 37.1 ± 0.3 ms
QTc [1, 17]: 42.3 ± 0.4 ms
RR [1, 17]: 77.0 ± 0.1 ms
ST [1, 17]: 26.7 ± 0.4 ms
HR [1, 18]: 761.3 ± 7.5 BPM
QRS [1, 18]: 11.1 ± 0.2 ms
QT [1, 18]: 38.1 ± 0.6 ms
QTc [1, 18]: 43.0 ± 0.6 ms
RR [1, 18]: 78.8 ± 0.8 ms
ST [1, 18]: 26.6 ± 0.5 ms
HR [1, 19]: 755.0 ± 1.0 BPM
QRS [1, 19]: 11.5 ± 0.1 ms
QT [1, 19]: 39.1 ± 0.9 ms
QTc [1, 19]: 43.9 ± 0.9 ms
RR [1, 19]: 79.5 ± 0.1 ms
ST [1, 19]: 28.1 ± 0.8 ms
HR [1, 20]: 798.0 ± 12.8 BPM
QRS [1, 20]: 10.6 ± 0.3 ms
QT [1, 20]: 39.1 ± 2.4 ms
QTc [1, 20]: 45.1 ± 2.9 ms
RR [1, 20]: 75.8 ± 0.2 ms
ST [1, 20]: 29.0 ± 2.2 ms
tumor weight, PBS treated mice relative to treatment group ([2]; day 31): ~2.4 times
TNBC tumor growth (tumor volume) ([2]; nude mice, LM3-3 tumors): can significantly inhibit TNBC tumor growth
AUCInf ([3]; mice): 0.046 ± 0.018 µM·h
AUClast/D ([3]; mice): 0.075 ± 0.044 µM·kg·h/mg
conversion to parent bufalin in vivo ([3]; free bufalin detected in plasma): can be converted to parent bufalin in vivo
histological examination of cardiomyocytes [4]: little damage to cardiomyocytes

C[C@]12CC[C@H](O)C[C@H]1CC[C@@H]1[C@@H]2CC[C@]2(C)[C@@H](c3ccc(=O)oc3)CC[C@]12O [Bufalin, bufalin]
IC50 [5]: < 20 nM
IC50 [6]: < 20 nM
SRC-3 protein expression ([7]; 100 nM, HCC1143, SUM149PT, SUM159PT, MDA-MB-231, MDA-MB-231-LM3-3): downregulate SRC-3 protein expression
SRC-3 protein level, dose dependence ([7]; MDA-MB-231-LM3-3): downregulated SRC-3 in MDA-MB-231-LM3-3 in a dose-dependent manner
binding to SRC-3 [8]: directly binds to SRC-3 in its receptor interacting domain
IC50 values [9]: low nM range
IC50 [10]: < 20 nM
synergy with gefitinib on cell viability ([11]; 5 or 10 nM bufalin with gefitinib, LM3-3 cells): synergize with gefitinib
IC50 [12]: 71.8 nM
toxicity toward LM3-3 cells under motility assay conditions ([13]; 12 hour time point): minimal toxicity
motility of LM3-3 cells ([13]; increasing concentrations of bufalin): decreased with increasing concentrations of bufalin
IC50 [14]: < 20 nM

COc1cc2ncnc(Nc3ccc(F)c(Cl)c3)c2cc1OCCCN1CCOCC1 [gefitinib]
toxicity in LM3-3 cells ([11]; gefitinib alone, up to 20 μM): minimal toxicity
